Experimental data as given in patent US20060270685A1, “Anhydrous ziprasidone mesylate and a process for its preparation” (priority 2005, published 2006).
Structures can show the parent of a compound that is named as a salt.

How the values were obtained:
[1] = when exposed to air (humidity); cited from earlier work
[2] = Water uptake (hygroscopicity) after exposure to 80% relative humidity, Karl Fisher and XRD; type: physicochemical
Experimental: The present invention further provides non hygroscopic anhydrous ziprasidone mesylate. Anhydrous ziprasidone mesylate is tested for water uptake after exposure to 80% relative humidity, at room temperature for 7 days, as summarized in the following table:
X-Ray powder diffraction data were obtained using a SCINTAG powder X-Ray diffractometer model X'TRA equipped with a solid state detector. Copper radiation of 1.5418 Å was used. A round aluminum sample holder with zero background was used. All peak positions are within ±0.2 degrees two theta. Karl Fisher analysis was performed according to the known art.
Anhydrous ziprasidone mesylate, having a tabular, and equant morphology was exposed to 80% humidity for at least 7 days at room temperature. Before the exposure, the water content was 0.5% as measured by Karl Fisher. After 7 days at 80% humidity at RT the sample contained 0.6% water as measured by Karl Fisher. Thus, there was an increase of 0.1% in the water content.

[3] = 80% RH, room temperature, 7 days

## O=C1Cc2cc(CCN3CCN(c4nsc5ccccc45)CC3)c(Cl)cc2N1 [Anhydrous ziprasidone mesylate, ziprasidone mesylate]
[1]
  hygroscopicity: hygroscopic
[2]; [3]
  Crystal form (by XRD): Anhydrous
  water Content (By KF): 0.6
[2]; 80% humidity, at least 7 days, room temperature
  change in the crystal form after the exposure: No change in the crystal form
[2]; 7 days at 80% humidity at RT vs before exposure
  increase in the water content: 0.1%
[2]; Initial, before exposure
  Crystal form (by XRD): Anhydrous
  water Content (By KF): 0.5
[2]; after 7 days at 80% humidity at RT
  water content as measured by Karl Fisher: 0.6%
[2]; before the exposure
  water content as measured by Karl Fisher: 0.5%
